This assay deals with KGFR. Nature of the assay: KGFR protein expression by Western blot in MCF-7 cells. The format is cell-based, human. The settings on record: E2 20 ng/ml, 24 h, FIG. 3A. Here is the method: The oestrogen receptor α-positive MCF-7 human breast adenocarcinoma cell line, acquired from American Type Culture Collection (no. HTB-22, ATCC-LGC Promochem, Teddington, UK), was cultured in Dulbecco's modified eagle's medium (DMEM; Invitrogen, Karlsruhe, Germany), supplemented with 10% foetal bovine serum (FBS; Invitrogen) and antibiotics. Primary cultures of human oestrogen-sensitive keratinocytes (KCs) were established from 1 cm^2 full-thickness mucosal biopsy of the vaginal vestibule. Following enzymatic dissociation, the keratinocytes were seeded onto culture plates coated with collagen IV (10 mg/ml), as previously reported [Panici et al, 2007], and were maintained in basal medium of the keratinocytes (KBM, Lonza) supplemented with aliquots of KGM (Lonza), with medium change twice a week. […]
MCF-7 cells untreated or treated with KGF or E2 were lysed in RIPA buffer. […] The bound antibody was detected by enhanced chemiluminescence detection reagents (Pierce Biotechnology, Inc, Rockford, Ill., USA), according to manufacturer's instructions. […] Densitometric analysis was performed using Quantity One Program (Bio-Rad Laboratories srl, Segrate, MI, Italy).
For orientation: In western blotting, separated proteins are transferred to a membrane and probed.

For `C[C@]12CC[C@@H]3c4ccc(O)cc4CC[C@H]3[C@@H]1CC[C@@H]2O` [E2, 17β-oestradiol], the KGFR protein level result was “a rise in the protein KGFR”.

For the origin of these results see US9827292B2, “Use of KGF in the treatment of menopausal disorders” (Università degli Studi di Roma “La Sapienza”, priority 2012, dated 2017).
